Measured values published in patent US10028956B2, “Methods of treating various cancers using an AXL/cMET inhibitor in combination with other agents” (Ignyta, Inc., priority 2013, dated 2018).
Marks after values point to notes of the source that are not given here.

Columns and labels:
Format in all cases: in vivo, mice
[1] = tested on: CTG-0157 primary NSCLC human TumorGraft; experiment: NSCLC TumorGraft model CTG-0157; conditions: CTG-0157, 14 days, 10 mg/kg iv/q4dx3
Protocol: (§1) Methods (for the experiments shown in FIGS. 10 and 11) • Female immunocompromised nu/nu mice (Harlan) between 6-9 weeks of age were housed on irradiated papertwist-enriched ⅛″ corncob bedding (Sheperd) in individual HEPA ventilated cages (Innocage® IVC, Innovive USA) on a 12-hour light-dark cycle at 68-74° F. (20-23° C.) and 30-70% humidity. Animals were fed water ad libitum (reverse osmosis, 2 ppm Cl2) and an irradiated Test rodent diet (Teklad 2919) consisting of 19% protein, 9% fat, and 4% fiber. • Tumor Models: Champions TumorGraft models of NSCLC are owned by Champions Oncology. In this study, animals were implanted unilaterally on the right flank with tumor fragments harvested from host animals. […] Erlotinib (manufacturer: OSI Pharmaceuticals; National Drug Code: 50242-062-01; Lot #: US0002) was formulated using 100% PEG-400 as the vehicle according to manufacturer's specifications.
(§2) Efficacy measurements: Beginning Day 0, tumor dimensions were measured twice weekly by digital caliper (Fowler Ultra-Cal IV) and data including individual and mean estimated tumor volumes (Mean TV±SEM) were recorded for each group; tumor volume was calculated using the formula TV=width^2×length×0.52. At study completion, percent tumor growth inhibition (% TGI) values were calculated and reported for each treatment group (T) versus control (C) using initial (i) and final (f) tumor measurements by the formula: % TGI=1−Tf−Ti/Cf−C; single agent or combination therapies resulting in a TGI>50 at study completion are considered active in the tested model at the evaluated treatment regimen according to NCI guidelines. […] If the PR persisted until study completion, percent tumor regression (% TR) was determined using the formula: % TR=1−Tf/Ti×100; a mean value was calculated if multiple PR mice occurred in one group. […] Statistical differences in tumor volume were determined using a two-tailed One-Way Analysis of Variance (ANOVA) followed by the Dunett's multiple comparisons test comparing treated groups with control and combinations with standard agent alone when possible. […]

[2] = tested on: CTG-0159 primary NSCLC human TumorGraft; experiment: NSCLC TumorGraft model CTG-0159; conditions: CTG-0159, 14 days, 10 mg/kg iv/q4dx3
Protocol: as §1, §2

[3] = tested on: CTG-0170 erlotinib-insensitive primary NSCLC human TumorGraft; experiment: NSCLC TumorGraft model CTG-0170; conditions: CTG-0170, 10 days, 10 mg/kg iv/q4dx3
Protocol: as §1
(§3) Efficacy measurements: Beginning Day 0, tumor dimensions were measured twice weekly by digital caliper (Fowler Ultra-Cal IV) and data including individual and mean estimated tumor volumes (Mean TV±SEM) were recorded for each group; tumor volume was calculated using the formula TV=width^2×length×0.52. At study completion, percent tumor growth inhibition (% TGI) values were calculated and reported for each treatment group (T) versus control (C) using initial (i) and final (f) tumor measurements by the formula: % TGI=1−Tf−Ti/Cf−C; single agent or combination therapies resulting in a TGI>50 at study completion are considered active in the tested model at the evaluated treatment regimen according to NCI guidelines. Individual mice reporting a tumor volume ≤50% of the Day 0 measurement for two consecutive measurements over a seven day period were considered partial responders (PR). If the PR persisted until study completion, percent tumor regression (% TR) was determined using the formula: % TR=1−Tf/Ti×100; a mean value was calculated if multiple PR mice occurred in one group. Individual mice lacking palpable tumors (<4×4 mm^2 for two consecutive measurements over a seven day period) were classified as complete responders (CR); a CR that persisted until study completion was considered a tumor-free survivor (TFS). TFS animals are excluded from efficacy calculations. Statistical differences in tumor volume were determined using a two-tailed One-Way Analysis of Variance (ANOVA) followed by the Dunett's multiple comparisons test comparing treated groups with control and combinations with standard agent alone when possible. All data collected in this study was managed electronically and stored on a redundant server system.

[4] = tested on: CTG-0192 erlotinib-sensitive NSCLC TumorGraft; experiment: NSCLC TumorGraft model CTG-0192
Protocol: as §1, §3

[5] = tested on: CTG-0165 erlotinib-insensitive primary NSCLC human TumorGraft; experiment: NSCLC TumorGraft model CTG-0165; conditions: CTG-0165, 37 days, 10 mg/kg iv/q4dx3
Protocol: as §1, §3

Structure (SMILES) | % Tumor Growth Inhibition [1] | % Tumor Growth Inhibition [2] | % Tumor Growth Inhibition [3] | % Tumor Growth Inhibition ([4]; CTG-0192, 32 days, 10 mg/kg iv/q4dx3) | % Tumor Growth Inhibition [5] | day of acquired resistance ([4]; CTG-0192, 35 mg/kg, po, qd×34) | tumor regrowth after discontinuation of dosing (day 34) ([4]; CTG-0192, 35 mg/kg, po, qd×34) | tumor response during dosing ([4]; CTG-0192, 35 mg/kg, po, qd×34)
CC(=O)O[C@H]1C(=O)[C@@]2(C)[C@H]([C@H](OC(=O)c3ccccc3)[C@]3(O)C[C@H](OC(=O)[C@H](O)[C@@H](NC(=O)c4ccccc4)c4ccccc4)C(C)=C1C3(C)C)[C@]1(OC(C)=O)CO[C@@H]1C[C@@H]2O [Paclitaxel, reference compound] | 41% | 25%* | 77%* | 105%* | 56%* | – | – | –
C#Cc1cccc(Nc2ncnc3cc(OCCOC)c(OCCOC)cc23)c1 [erlotinib, reference compound] | – | – | – | – | – | ~29 days | rate of tumor regrowth was similar to control/vehicle | initial sensitivity followed by acquired erlotinib-resistance
